The inhibition is the change of the read-out against control, counted positive when it falls.

Experiment in all cases: HotSpot kinase profiling
Type in all cases: biochemical

In assay [1] the target is T1, CDK9/cyclin T1 (Homo sapiens, UniProt P50750).
T1 construct: purchased Reaction Biology Corp
The method, boiled down: (§1)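 Radio-isotope P81 filtration format. Substrate + required cofactors in reaction buffer, kinase added, 2 h RT. Stop, wash with 0.1% phosphoric acid, detect. % inhibition vs DMSO; mean of duplicates where repeated.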

The target of assay [2] is T2, LCK2/ICK (Homo sapiens, UniProt Q9UPZ9).
T2 construct: purchased Reaction Biology Corp
T2 sequence (Q9UPZ9 1-632): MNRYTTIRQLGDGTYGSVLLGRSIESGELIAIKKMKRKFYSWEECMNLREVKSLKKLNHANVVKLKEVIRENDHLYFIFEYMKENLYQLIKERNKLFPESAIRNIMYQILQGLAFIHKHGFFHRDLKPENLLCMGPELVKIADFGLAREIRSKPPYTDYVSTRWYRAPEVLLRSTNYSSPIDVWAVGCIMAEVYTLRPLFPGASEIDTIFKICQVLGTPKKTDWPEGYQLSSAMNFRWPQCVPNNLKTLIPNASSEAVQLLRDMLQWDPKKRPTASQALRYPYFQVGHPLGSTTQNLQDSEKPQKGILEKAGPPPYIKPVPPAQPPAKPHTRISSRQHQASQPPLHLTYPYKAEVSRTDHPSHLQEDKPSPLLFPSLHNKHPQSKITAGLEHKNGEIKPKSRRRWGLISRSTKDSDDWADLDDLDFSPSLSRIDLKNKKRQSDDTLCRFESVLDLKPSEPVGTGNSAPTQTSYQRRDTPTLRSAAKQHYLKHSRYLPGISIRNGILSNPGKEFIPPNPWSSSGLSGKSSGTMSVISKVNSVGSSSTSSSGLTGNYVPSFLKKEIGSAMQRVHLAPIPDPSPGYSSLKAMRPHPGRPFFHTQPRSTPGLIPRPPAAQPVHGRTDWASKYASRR
The method, boiled down: as §1

Assay [3] has as its target T3, VRK2 (Homo sapiens, UniProt Q86Y07).
T3 construct: purchased Reaction Biology Corp
The method, boiled down: as §1

Assay [4] addresses T4, FGFR4 (Homo sapiens, UniProt P22455).
T4 construct: purchased Reaction Biology Corp
The method, boiled down:
as §1

For assay [5], the target named is T5, TTBK2 (Homo sapiens, UniProt Q6IQ55).
T5 construct: purchased Reaction Biology Corp
T5 sequence (Q6IQ55 whole entry): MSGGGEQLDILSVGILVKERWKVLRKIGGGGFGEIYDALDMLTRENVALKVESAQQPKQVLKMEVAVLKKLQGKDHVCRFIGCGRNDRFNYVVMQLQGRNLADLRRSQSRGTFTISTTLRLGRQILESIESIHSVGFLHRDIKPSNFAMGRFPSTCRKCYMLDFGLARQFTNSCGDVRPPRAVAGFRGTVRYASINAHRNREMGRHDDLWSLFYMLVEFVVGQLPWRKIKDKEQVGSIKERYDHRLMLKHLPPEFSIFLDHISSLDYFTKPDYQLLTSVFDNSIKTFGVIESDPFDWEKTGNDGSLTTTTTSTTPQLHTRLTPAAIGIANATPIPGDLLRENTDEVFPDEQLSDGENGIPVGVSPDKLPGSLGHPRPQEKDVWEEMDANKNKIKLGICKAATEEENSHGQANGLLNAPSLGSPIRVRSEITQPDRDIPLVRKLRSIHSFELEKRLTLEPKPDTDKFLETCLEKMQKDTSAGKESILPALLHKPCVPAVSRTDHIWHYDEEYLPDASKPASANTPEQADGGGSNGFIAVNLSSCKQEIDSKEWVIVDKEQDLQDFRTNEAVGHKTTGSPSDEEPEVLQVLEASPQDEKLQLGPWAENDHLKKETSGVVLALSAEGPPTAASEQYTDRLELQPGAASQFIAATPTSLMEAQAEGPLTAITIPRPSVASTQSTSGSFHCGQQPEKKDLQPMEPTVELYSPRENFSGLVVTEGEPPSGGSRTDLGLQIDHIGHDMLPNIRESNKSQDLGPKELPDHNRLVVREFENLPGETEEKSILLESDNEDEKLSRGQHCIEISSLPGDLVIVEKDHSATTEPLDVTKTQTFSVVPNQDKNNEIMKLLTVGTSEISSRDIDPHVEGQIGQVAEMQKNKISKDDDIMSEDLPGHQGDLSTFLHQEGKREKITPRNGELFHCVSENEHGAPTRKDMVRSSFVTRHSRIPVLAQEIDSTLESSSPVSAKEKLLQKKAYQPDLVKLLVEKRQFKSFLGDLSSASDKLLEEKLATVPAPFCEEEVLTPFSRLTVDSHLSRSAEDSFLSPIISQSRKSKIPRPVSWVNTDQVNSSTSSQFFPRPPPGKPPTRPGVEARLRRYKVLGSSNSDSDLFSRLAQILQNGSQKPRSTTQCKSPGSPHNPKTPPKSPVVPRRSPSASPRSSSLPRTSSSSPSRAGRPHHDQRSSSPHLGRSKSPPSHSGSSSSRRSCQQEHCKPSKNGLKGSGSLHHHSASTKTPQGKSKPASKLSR
The method, boiled down:
as §1

The target in assay [6] is T6, EPHA1 (Homo sapiens, UniProt P21709).
T6 construct: purchased Reaction Biology Corp
T6 sequence (P21709 26-976): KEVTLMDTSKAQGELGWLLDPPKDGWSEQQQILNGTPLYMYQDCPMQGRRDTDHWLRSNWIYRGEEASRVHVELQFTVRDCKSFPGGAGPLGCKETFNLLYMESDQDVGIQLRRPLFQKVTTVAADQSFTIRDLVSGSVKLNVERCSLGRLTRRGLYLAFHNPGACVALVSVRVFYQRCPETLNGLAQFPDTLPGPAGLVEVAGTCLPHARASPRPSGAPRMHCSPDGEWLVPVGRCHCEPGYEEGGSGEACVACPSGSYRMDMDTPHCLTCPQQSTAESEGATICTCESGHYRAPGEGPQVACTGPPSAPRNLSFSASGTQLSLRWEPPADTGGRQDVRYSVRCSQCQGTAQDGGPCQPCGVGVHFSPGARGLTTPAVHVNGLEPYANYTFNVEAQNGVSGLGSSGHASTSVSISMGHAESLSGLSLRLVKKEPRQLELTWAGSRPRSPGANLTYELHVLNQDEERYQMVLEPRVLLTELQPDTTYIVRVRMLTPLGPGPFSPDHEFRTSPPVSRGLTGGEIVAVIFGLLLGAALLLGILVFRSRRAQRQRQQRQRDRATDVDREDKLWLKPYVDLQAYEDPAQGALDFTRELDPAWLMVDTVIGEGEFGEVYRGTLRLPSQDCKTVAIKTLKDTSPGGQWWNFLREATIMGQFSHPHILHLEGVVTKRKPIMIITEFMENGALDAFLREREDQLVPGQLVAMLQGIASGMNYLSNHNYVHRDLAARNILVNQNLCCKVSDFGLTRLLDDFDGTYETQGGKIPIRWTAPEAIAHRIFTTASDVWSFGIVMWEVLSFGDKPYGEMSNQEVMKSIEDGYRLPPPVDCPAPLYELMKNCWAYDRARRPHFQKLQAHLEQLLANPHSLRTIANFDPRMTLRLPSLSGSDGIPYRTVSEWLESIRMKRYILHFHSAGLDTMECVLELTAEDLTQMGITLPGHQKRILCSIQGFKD
The method, boiled down: as §1

Assay [7] addresses T7, CK2a2 (Homo sapiens, UniProt P19784).
T7 construct: purchased Reaction Biology Corp
A digest of the protocol:
as §1

The mark [8] stands for this setting: read-out: % Enzyme Activity (relative to DMSO controls) Run 1.
The mark [9] stands for this setting: read-out: % Enzyme Activity (relative to DMSO controls) Run 2.

Read-outs that look alike come from different tables or passages of the source.

T4 sequence (P22455 22-802): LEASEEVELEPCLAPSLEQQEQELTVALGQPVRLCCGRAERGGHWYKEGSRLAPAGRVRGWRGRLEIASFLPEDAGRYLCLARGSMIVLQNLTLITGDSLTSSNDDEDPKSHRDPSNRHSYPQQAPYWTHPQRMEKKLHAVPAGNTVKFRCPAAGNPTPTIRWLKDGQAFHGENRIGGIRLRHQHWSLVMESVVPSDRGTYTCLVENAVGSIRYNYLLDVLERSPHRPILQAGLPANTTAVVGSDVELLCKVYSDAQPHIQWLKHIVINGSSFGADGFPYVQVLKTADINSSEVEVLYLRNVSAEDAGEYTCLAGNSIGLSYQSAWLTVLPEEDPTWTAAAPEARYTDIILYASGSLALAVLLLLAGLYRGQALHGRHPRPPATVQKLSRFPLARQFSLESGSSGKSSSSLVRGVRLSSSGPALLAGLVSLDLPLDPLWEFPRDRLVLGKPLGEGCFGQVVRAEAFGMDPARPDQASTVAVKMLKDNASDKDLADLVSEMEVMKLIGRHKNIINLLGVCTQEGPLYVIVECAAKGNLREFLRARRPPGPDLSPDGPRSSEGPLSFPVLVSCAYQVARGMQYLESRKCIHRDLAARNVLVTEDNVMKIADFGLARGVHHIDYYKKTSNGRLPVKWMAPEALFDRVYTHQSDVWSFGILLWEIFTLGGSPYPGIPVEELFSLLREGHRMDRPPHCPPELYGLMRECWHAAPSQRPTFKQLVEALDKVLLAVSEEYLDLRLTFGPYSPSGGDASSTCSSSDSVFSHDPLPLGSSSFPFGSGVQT
T3 sequence (Q86Y07 whole entry): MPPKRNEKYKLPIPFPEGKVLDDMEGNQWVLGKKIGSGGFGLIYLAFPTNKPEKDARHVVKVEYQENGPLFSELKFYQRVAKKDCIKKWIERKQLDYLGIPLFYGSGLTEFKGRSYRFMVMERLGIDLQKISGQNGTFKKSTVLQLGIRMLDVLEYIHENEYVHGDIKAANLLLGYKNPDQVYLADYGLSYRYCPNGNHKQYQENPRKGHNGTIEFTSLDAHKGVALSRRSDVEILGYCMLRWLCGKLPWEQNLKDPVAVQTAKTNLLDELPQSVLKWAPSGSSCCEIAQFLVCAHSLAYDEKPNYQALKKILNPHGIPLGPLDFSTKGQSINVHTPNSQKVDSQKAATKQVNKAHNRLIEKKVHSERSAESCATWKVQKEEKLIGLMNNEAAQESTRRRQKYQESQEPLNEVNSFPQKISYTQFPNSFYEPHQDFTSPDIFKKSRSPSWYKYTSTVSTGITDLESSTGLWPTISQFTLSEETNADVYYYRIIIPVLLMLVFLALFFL
T1 sequence (P50750 whole entry): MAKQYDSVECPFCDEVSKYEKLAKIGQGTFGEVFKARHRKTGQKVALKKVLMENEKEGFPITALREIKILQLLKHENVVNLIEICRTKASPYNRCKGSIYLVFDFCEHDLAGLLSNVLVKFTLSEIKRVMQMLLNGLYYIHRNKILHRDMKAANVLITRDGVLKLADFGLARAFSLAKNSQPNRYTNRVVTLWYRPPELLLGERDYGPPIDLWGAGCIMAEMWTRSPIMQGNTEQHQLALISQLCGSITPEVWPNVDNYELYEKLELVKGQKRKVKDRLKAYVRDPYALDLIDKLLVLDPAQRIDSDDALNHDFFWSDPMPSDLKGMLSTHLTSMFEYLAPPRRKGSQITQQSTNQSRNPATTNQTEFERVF
T1 sequence (O60563 whole entry partner): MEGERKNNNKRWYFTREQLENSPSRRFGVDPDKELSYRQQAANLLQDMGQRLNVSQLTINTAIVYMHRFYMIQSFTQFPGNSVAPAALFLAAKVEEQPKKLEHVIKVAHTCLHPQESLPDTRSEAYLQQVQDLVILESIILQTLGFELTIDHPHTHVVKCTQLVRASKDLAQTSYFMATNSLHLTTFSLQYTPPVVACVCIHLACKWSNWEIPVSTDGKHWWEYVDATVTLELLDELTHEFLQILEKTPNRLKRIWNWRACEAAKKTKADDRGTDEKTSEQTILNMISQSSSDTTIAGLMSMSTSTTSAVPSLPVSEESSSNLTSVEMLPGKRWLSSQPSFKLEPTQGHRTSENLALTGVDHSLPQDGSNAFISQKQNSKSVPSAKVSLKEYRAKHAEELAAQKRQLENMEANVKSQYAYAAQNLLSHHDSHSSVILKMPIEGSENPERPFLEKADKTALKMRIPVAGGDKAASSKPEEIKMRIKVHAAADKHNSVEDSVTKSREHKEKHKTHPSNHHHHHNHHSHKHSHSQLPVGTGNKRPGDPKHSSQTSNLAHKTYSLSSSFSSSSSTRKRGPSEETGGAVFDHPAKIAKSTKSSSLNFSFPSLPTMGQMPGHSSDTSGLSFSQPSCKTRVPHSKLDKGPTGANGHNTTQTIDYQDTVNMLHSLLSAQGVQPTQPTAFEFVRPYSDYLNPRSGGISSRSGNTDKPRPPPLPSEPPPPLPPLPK
T7 sequence (P19784 whole entry): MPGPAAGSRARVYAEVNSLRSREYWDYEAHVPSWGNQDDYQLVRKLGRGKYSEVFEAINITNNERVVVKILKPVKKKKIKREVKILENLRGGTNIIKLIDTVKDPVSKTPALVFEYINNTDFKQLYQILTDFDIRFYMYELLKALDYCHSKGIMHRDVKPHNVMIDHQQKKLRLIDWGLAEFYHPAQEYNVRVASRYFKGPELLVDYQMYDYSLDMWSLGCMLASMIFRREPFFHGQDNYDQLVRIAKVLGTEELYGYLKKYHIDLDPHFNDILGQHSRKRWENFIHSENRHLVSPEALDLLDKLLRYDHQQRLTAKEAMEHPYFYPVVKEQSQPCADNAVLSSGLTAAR

As to `C=CC(=O)Nc1cccc(Nc2nc(Nc3ccc(OCCOC)c(F)c3)ncc2F)c1` [Compound 2], the inhibition at 3 µM is 10.3% in assay [1]; 1.98% in assay [2]; 5.06% in assay [3]; 35.1% in assay [4]; -0.86% in assay [5]; -0.24% in assay [6]. Besides, in assay [7], the inhibition at 3 µM was -1.81%. Moreover, the remaining activity at 3 µM in assay [1] (setting [8]) turned out to be 87.8%; in assay [1] (setting [9]), 91.5%; in assay [2] (setting [8]), 101%; in assay [2] (setting [9]), 95.1%; in assay [3] (setting [8]), 94%; in assay [3] (setting [9]) it was 95.9%. In addition, the remaining activity at 3 µM in assay [4] (setting [8]) turned out to be 66.3%; in assay [4] (setting [9]), 63.4%; in assay [5] (setting [8]) it was 102%; in assay [5] (setting [9]) it was 99.7%; in assay [6] (setting [8]), 99.5%; in assay [6] (setting [9]), 101%. In addition, the results for the remaining activity at 3 µM in assay [7] (setting [8]) and in assay [7] (setting [9]) were 98.2% and 105%, respectively.

For the origin of these results see patent US9492471B2, “Methods of treating a disease or disorder associated with Bruton'S Tyrosine Kinase” (Celgene Avilomics Research, Inc., priority 2013, dated 2016).
